Publication PMC8591604, “Targeting Oncogenic Src Homology 2 Domain-Containing Phosphatase 2 (SHP2) by Inhibiting Its Protein–Protein Interactions” (Journal of Medicinal Chemistry, 2021)
Like-named read-outs stand apart in the source and are kept apart here. Where a SMILES comes first, the peptide text is derived from it. [ ]: non-standard residue; d: D form. The star is where a group is joined. 5FAM = O=C1OC2(c3ccc(O)cc3Oc3cc(O)ccc32)c2ccc(C(=O)*)cc21; pY = N[C@@H](Cc1ccc(OP(=O)(O)O)cc1)C(=O)O

How the values were obtained:
N-SH2 domain of SHP2 [1] = target: T1, N-SH2 domain of SHP2 (Homo sapiens, UniProt Q06124); test: Fluorescence anisotropy direct binding assay; details: for standard free energy of binding: assuming a 1 M standard state; for Kd: direct titration of labeled peptide
T1 construct: constructs of the N-SH2 (residues 2–111), C-SH2 (residues 109–217), and PTP (residues 212–528) domains; made in house; host or cells: Escherichia coli (DE3) Rosetta2
T1 sequence (Q06124 2-111): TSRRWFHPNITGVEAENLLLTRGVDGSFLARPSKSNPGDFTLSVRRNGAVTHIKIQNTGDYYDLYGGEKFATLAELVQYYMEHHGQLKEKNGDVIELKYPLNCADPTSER
Procedure: Anisotropy measurements were carried out using a Horiba Fluoromax 4 spectrofluorimeter. For the binding assays, the requested peptide amount (1 or 0.1 nM) was diluted in a buffer (10 mM HEPES, 150 mM NaCl, 1 mM EDTA, and 1 mM TCEP, fluorescence buffer henceforth) and its anisotropy signal was recorded. The peptide was then titrated with increasing protein amounts, until the anisotropy signal reached a plateau at its maximum value, or up to a protein concentration at which protein aggregation and consequent light scattering affected the anisotropy values (usually >1 μM). The measurements of CF-labeled peptides were carried out using an excitation wavelength of 470 nm and collecting the anisotropy values at an emission wavelength of 520 nm. A 495 nm emission filter was used. […] Between two and six replicates were performed (the specific numbers are indicated in the figures and in the table reporting the binding experiments).
Analysis of binding curves
fractions correspond to the population of the two states.
𝑟 = 𝑥𝐵𝑟𝑚𝑎𝑥 + (1 − 𝑥𝐵)𝑟0 (1)
Here, r, r0 and rmax are the anisotropy values at a given protein concentration, in the absence of protein and when the peptide is completely bound, respectively, and 𝑥𝐵 is the molar fraction of bound peptide. This last quantity, therefore, can be derived from the anisotropy values as follows:
Kd values were obtained fitting the data with the following equation, 2 which avoids the need for the commonly used (but often unjustified) approximation of the concentration of unbound protein with
Here, [P]T and [L]T are the total protein and ligand concentrations. When allowed by the experimental conditions (i.e. when [𝐿]𝑇 ≪ 𝐾𝑑), this equation was simplified by assuming [𝑃]𝑇 ≅
(§2) The affinity of unlabeled peptides was determined by competition experiments, in which a sample with fixed total protein and fluorescently labeled peptide concentrations ([ 𝑃]T and [𝐿]T) was titrated with the unlabeled peptide, causing displacement of the flu orescent peptide and a decrease in
half of the bound fluorescent analog) was determined, interpolating the displacement curve using a phenomenological Hill equation:3
where [I]T is the total concentration of the peptide causing the displacement, and rfin is the anisotropy corresponding to total displacement, while in this case r0 is the starting anisotropy, in the absence of displacing peptide.
Successively, the dissociation constant of the unlabeled peptide (𝐾𝑑𝑢) was calculated from the know values of EC50, Kd, [𝑃]𝑇 and [𝐿]𝑇, as described here below.
In the system where protein (P), ligand (L ) and a competitive inhibitor (I) are present, both L and I can form complexes with P (PL and PI, respectively). The following dissociation constants can be defined for the two binding equilibria:

[2] = Peptide stability in DMEM; type: in vitro ADME; details: 3 days; data not shown
Procedure: (§1) The peptides were dissolved in DMSO (5 mg/mL). In Eppendorf tubes, 1 mL of HEPES buffer (25 mM, pH 7.6) was temperature equilibrated at 37 °C before the addition of 250 μL of human serum and 20 μL of a peptide solution; the reaction was followed for 24 h. At fixed intervals, 100 μL of the solution was withdrawn and added to 200 μL of absolute ethanol. These samples were kept on ice for 15 min and then centrifuged at 13000 rpm for 5 min; the supernatant solutions were analyzed by HPLC and HPLC-MS with a 20% to 60% B gradient in 20 min to follow the reaction. In parallel, samples containing peptide, buffer, and ethanol only were analyzed. A degradation resistance test was also conducted in DMEM (Dulbecco’s modified Eagle’s medium). The experimental conditions are similar to those described above; the reaction was followed for 72 h. The enzymatic degradation resistance tests were followed by HPLC using a 5% to 50% B gradient over 20 min.

N-SH2 domain of SHP2 [3] = target: T1, N-SH2 domain of SHP2; test: Fluorescence anisotropy displacement assay; type: binding; details: 1.0 nM CF-P9, 40 nM N-SH2; compared with P9
Procedure: The displacement assays were carried out with the same experimental settings. In this case, the labeled peptide–protein complex was titrated with increasing amounts of the unlabeled peptide, following the decrease in anisotropy. Measurements were carried out at the same CF-peptide concentration used for the corresponding binding experiments. With regard to the protein concentration, a compromise between two requirements is needed.[90] […] Between three and five replicates were performed (the specific numbers are indicated in the figures reporting the binding experiments).
Here, [P]T and [L]T are the total protein and ligand concentrations. […]
as §2
half of the bound fluorescent analog) was determined, interpolating the displacement curve using a phenomenological Hill equation:3 […]
Successively, the dissociation constant of the unlabeled peptide (𝐾𝑑𝑢) was calculated from the know values of EC50, Kd, [𝑃]𝑇 and [𝐿]𝑇, as described here below. […]
In this way, 𝐾𝑑𝑢 is expressed as a function of the known quantities EC50, Kd, [𝑃]T and [𝐿]T, without

SHP2Δ104 = target: T2, SHP2Δ104 (Homo sapiens, UniProt Q06124); test: Dephosphorylation of phosphopeptides, malachite green phosphatase assay; type: biochemical; details: 100 μM phosphopeptide
T2 construct: the isolated PTP domain preceded by the C-SH2 domain (residues 105–528); made in house; host or cells: Escherichia coli (DE3) Rosetta2
T2 sequence (Q06124 105-528): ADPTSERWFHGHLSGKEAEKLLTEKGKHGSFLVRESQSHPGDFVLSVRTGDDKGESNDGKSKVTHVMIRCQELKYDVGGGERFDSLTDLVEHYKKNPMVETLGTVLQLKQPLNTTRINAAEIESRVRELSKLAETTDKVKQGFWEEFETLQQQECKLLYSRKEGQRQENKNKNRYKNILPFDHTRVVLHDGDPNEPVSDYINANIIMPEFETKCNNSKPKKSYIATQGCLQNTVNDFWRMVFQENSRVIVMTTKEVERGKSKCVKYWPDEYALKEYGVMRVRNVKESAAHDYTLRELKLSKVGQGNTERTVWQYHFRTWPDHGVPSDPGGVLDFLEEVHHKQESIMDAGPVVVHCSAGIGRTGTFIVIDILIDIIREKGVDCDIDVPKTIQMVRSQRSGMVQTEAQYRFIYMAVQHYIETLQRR
Procedure: The ability of SHP2 to dephosphorylate the phosphopeptides was evaluated through a malachite green phosphatase assay (PTP assay kit 1, Millipore). The BTAM peptide and the following monophosphorylated peptides derived from known SHP2 substrates were used for comparison: DKQVE-pY-LDLDL (GAB1Y657), EEENI-pY-SVPHD (p190A/RhoGAPY1105), and VDADE-pY-LIPQQ (EGFRY1016) (Primm). SHP2Δ104 (2.4 pmol) was incubated with each phosphopeptide at 100 μM (total volume of 25 μL) for different times. The reaction was stopped by adding 100 μL of a malachite green solution. After 15 min, the absorbance was read at 655 nm, using a microplate reader, and compared with a phosphate standard curve to determine the release of phosphate. Data obtained in the linear region of the curve were normalized to the reaction time (1 min). Each experiment was performed in duplicate.

[4] = Peptide stability in human serum (HPLC); type: in vitro ADME; details: in 3 h, positive control
Procedure: as §1

N-SH2 domain [5] = target: N-SH2 domain; design: method as in ref 48 (a number printed in a supplementary file, which may have a reference list of its own: not looked up in the article's list); details: Radioactively labeled peptide; cited from earlier work
N-SH2 domain [6] = target: N-SH2 domain; design: method as in ref 19 (a number printed in a supplementary file, which may have a reference list of its own: not looked up in the article's list); details: Isothermal titration calorimetry; cited from earlier work

Compound: CC[C@H](C)[C@H](NC(=O)[C@H](Cc1ccc(OP(=O)(O)O)cc1)NC(=O)[C@H](CC(N)=O)NC(=O)[C@H](CC(C)C)NC(=O)CNC(=O)c1ccc2c(c1)C(=O)OC21c2ccc(O)cc2Oc2cc(O)ccc21)C(=O)N[C@@H](CC(=O)O)C(=O)N[C@@H](CC(C)C)C(=O)N[C@@H](CC(=O)O)C(=O)N[C@@H](CC(C)C)C(N)=O [CF-P9, CF-GLN-pY -IDLDL] (5FAM-GLN[pY]IDLDL-NH2)
- standard free energy of binding (N-SH2 domain of SHP2 [1]): -9.94 ± 0.024 kcal/mol
- Kd (N-SH2 domain of SHP2 [1]): 53 ± 2 nM

Compound: CC[C@H](C)[C@H](NC(=O)[C@H](Cc1ccc(O)cc1)NC(=O)[C@H](CC(N)=O)NC(=O)[C@H](CC(C)C)NC(=O)CNC(=O)c1ccc2c(c1)C(=O)OC21c2ccc(O)cc2Oc2cc(O)ccc21)C(=O)N[C@@H](CC(=O)O)C(=O)N[C@@H](CC(C)C)C(=O)N[C@@H](CC(=O)O)C(=O)N[C@@H](CC(C)C)C(N)=O [CF-P9Y0, CF-GLN- Y -IDLDL] (5FAM-GLNYIDLDL-NH2)
- affinity, times lower than the phosphorylated peptide (N-SH2 domain of SHP2 [1]; CF-P9Y0 vs CF-P9): approximately 100 times
- standard free energy of binding (N-SH2 domain of SHP2 [1]): -7.07 ± 0.048 kcal/mol
- Kd (N-SH2 domain of SHP2 [1]): 6600 ± 600 nM

Compound: CC[C@H](C)[C@H](NC(=O)[C@H](Cc1ccc(C(F)(F)P(=O)(O)O)cc1)NC(=O)[C@H](CC(N)=O)NC(=O)[C@H](CC(C)C)NC(=O)CNC(C)=O)C(=O)N[C@@H](CC(=O)O)C(=O)N[C@@H](CC(C)C)C(=O)N[C@@H](CC(=O)O)C(=O)N[C@@H](Cc1c[nH]c2ccccc12)C(N)=O [OP, GLN- F2Pmp-IDLDW]
- stability in DMEM [2]: stable

Compound: CC[C@H](C)[C@H](NC(=O)[C@H](Cc1ccc(OP(=O)(O)O)cc1)NC(=O)[C@H](CC(N)=O)NC(=O)[C@H](CC(C)C)NC(C)=O)C(=O)N[C@@H](CC(=O)O)C(=O)N[C@@H](CC(C)C)C(=O)N[C@@H](CC(=O)O)C(=O)N[C@@H](CC(C)C)C(N)=O [P8, LN-pY -IDLDL] (Ac-LN[pY]IDLDL-NH2)
- effect of shortening the sequence on affinity (displacement curves) (N-SH2 domain of SHP2 [3]): No significant loss of affinity
- dephosphorylation by SHP2Δ104 (SHP2Δ104): dephosphorylation was indeed observed

Compound: CC[C@H](C)[C@H](NC(=O)[C@H](Cc1ccc(OP(=O)(O)O)cc1)NC(=O)[C@H](CC(N)=O)NC(=O)[C@H](CC(C)C)NC(C)=O)C(=O)N[C@@H](CC(=O)O)C(=O)N[C@@H](CC(C)C)C(=O)N[C@@H](CC(=O)O)C(=O)N[C@@H](Cc1c[nH]c2ccccc12)C(N)=O [P8W5, LN-pY -IDLDW]
- dephosphorylation by SHP2Δ104 (SHP2Δ104): dephosphorylation was indeed observed

Compound: CC[C@H](C)[C@H](NC(=O)[C@H](C)NC(=O)[C@H](CCCCN)NC(=O)CNC(=O)[C@H](Cc1ccc(O)cc1)NC(=O)[C@H](Cc1ccc(O)cc1)NC(=O)[C@H](CCCCN)NC(=O)[C@H](Cc1ccccc1)NC(=O)[C@@H](N)Cc1c[nH]c2ccccc12)C(=O)N[C@@H](Cc1ccc(O)cc1)C(=O)O [XP] (H-WFKYYGKAIY-OH)
- degradation in human serum [4]: totally degraded

Compound: N-pY -IDLDL [P7]
- effect of shortening the sequence on affinity (displacement curves) (N-SH2 domain of SHP2 [3]): drastic perturbation of the complex stability

Compound: SLN-pY-IDLDLVKD [IRS-1 pY1172]
- Kd (N-SH2 domain [5]): 1000 to 10000 nM
- Kd (N-SH2 domain [6]): 51 nM
